According to patent EP4714952A1, “COMPOUND AND USE THEREOF” (Autobio Group Co., Ltd., priority 2023, dated 2025):
Counter-ions that a name gives are not always drawn. Like-named read-outs stand apart in the source and are kept apart here.

Tests used:
PDE4B1 = target: T1, PDE4B1 (Homo sapiens, UniProt Q07343); assay: In vitro inhibitory effect on PDE4B1 enzyme (AMP-Glo assay); format: biochemical
T1 construct: purchased Sigma
Protocol: (§1) 1. Table 1 Main reagents and consumables for in vitro detection of inhibitory effect
(§2) 2. Preparation of experimental buffers Reaction buffer (5×): 50 mM Tris-HCl (buffer), 50 mM MgCl2, 0.5% BSA, 0.25% Tween-20, pH 7.4, stored at -20°C. 3. […] The starting concentration of the reference substance serial dilution was the Low control, and 1% DMSO-reaction buffer served as the High control. • 3) The enzyme was diluted to the desired concentration with 1× reaction buffer, and 4 µL of the diluted solution was transferred to the assay plate. After centrifugation, the 384-well low dead-volume microplate was sealed with sealing film and incubated in the incubator at 23°C for 15 minutes. • 4) The substrate cAMP was diluted to the desired concentration using 1× reaction buffer, and 5 µL of the diluted solution was transferred to the assay plate. After centrifugation, the plate was sealed again and incubated in the incubator at 23°C for 60 minutes (PDE3A) or 10 minutes (PDE4B1). • 5) Then, 5 µL of Reagent I from the AMP-Glo™ Assay Kit was added to the assay plate. After centrifugation and sealing, the plate was incubated in the incubator at 23°C for 60 minutes. • 6) The detection solution was prepared according to the AMP-Glo™ Assay Kit instructions, and 10 µL of the detection solution was added to the assay plate. After centrifugation and sealing, the plate was incubated in the incubator at 23°C for 60 minutes. • 7) The readout was recorded using a multimode microplate reader. 4. […] 5.

PDE3A = target: T2, PDE3A (Homo sapiens, UniProt Q14432); assay: In vitro inhibitory effect on PDE3A enzyme (AMP-Glo assay); format: biochemical
T2 construct: purchased BPS
Protocol: as §1, §2

[1] = AMP-Glo Assay Kit, substrate cAMP, 23°C, 10 minutes, read-out: PDE4B1 (IC50)
[2] = AMP-Glo Assay Kit, substrate cAMP, 23°C, 60 minutes, read-out: PDE3A (IC50)

T2 sequence (Q14432 whole entry): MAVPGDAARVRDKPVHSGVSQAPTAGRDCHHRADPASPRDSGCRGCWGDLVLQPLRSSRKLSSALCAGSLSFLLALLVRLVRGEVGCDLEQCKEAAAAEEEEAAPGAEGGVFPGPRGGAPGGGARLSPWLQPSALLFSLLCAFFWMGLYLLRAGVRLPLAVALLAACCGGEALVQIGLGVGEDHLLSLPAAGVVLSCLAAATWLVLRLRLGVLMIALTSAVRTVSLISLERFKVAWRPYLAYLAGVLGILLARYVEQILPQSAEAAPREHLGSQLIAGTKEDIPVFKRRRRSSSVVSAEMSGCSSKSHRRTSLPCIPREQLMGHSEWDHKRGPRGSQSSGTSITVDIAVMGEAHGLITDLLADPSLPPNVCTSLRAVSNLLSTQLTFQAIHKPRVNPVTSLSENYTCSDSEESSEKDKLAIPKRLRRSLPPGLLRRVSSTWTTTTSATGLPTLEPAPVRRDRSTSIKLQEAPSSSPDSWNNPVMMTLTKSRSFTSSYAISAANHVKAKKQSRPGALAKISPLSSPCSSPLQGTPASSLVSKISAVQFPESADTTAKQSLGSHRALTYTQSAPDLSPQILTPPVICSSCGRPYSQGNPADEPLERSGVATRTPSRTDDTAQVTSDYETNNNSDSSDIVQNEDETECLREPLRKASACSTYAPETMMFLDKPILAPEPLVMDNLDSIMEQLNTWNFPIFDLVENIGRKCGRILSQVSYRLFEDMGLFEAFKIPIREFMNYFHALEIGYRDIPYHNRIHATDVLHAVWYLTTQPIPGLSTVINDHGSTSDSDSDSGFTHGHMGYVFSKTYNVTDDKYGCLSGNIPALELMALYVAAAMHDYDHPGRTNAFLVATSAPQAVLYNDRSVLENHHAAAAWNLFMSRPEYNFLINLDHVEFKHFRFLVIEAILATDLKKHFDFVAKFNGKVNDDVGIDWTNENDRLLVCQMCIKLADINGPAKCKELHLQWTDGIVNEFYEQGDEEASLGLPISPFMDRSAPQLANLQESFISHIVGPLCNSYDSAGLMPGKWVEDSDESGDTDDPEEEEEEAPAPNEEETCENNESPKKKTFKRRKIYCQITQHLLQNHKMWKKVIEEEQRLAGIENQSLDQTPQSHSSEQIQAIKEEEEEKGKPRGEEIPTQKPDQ
T1 sequence (Q07343 whole entry): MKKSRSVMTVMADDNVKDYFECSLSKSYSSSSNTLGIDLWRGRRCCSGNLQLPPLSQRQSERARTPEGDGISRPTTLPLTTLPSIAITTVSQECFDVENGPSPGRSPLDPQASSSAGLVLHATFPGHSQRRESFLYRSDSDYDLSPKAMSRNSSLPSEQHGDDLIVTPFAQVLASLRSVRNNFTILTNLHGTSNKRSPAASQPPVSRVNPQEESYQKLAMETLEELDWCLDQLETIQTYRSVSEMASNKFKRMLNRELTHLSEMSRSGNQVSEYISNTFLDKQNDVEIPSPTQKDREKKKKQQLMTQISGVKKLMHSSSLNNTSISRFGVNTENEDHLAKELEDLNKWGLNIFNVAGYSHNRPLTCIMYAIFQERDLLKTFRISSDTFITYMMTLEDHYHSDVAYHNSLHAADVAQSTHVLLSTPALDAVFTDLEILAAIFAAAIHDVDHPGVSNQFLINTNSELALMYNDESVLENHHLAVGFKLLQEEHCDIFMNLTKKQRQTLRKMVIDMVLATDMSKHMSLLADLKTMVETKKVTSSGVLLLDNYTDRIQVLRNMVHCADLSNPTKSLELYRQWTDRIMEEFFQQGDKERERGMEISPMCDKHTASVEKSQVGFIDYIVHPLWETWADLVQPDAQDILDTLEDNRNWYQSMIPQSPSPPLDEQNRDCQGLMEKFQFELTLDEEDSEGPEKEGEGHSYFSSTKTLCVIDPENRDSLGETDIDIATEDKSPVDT

| IC50 (PDE4B1; [1]) [nM] | IC50 (PDE3A; [2]) [nM] | SMILES | IC50 (PDE4B1) [nM] | IC50 (PDE3A) [nM] |
| --- | --- | --- | --- | --- |
|  |  | CCOc1cc2c(cc1OC)-c1cc(N(CCNC(=O)c3c(O)nnn3C)c3c(C)cc(C)cc3C)nc(=O)n1CC2 [Compound 43] | 13.6 | 0.19 |
| 974 | 0.1 | COc1cc2c(cc1OC)-c1cc(=Nc3c(C)cc(C)cc3C)n(CCC(O)CO)c(=O)n1CC2 (centres unmarked) [Compound 5] |  |  |
| 2860 | 0.33 | CCOc1cc2c(cc1OC)-c1cc(=Nc3c(C)cc(C)cc3C)n(CCC(N)C(F)(F)F)c(=O)n1CC2 (centres unmarked) [Compound 79] |  |  |
| 918 | 2.16 | COc1cc2c(cc1OCC1CC1)CCn1c-2cc(=Nc2c(C)cc(C)cc2C)n(CCNC(=O)c2c(O)nnn2C)c1=O [Compound 27] |  |  |
|  |  | COc1cc2c(cc1OC)-c1cc(=Nc3c(C)cc(C)cc3C)n(CCNC(=O)NCCN3CCOCC3)c(=O)n1CC2 [Compound 38] | 1890 | 1.61 |
|  |  | COc1cc2c(cc1OC)-c1cc(=Nc3c(C)cc(C)cc3C)n(CCNC(=O)c3cccn(CC(F)(F)F)c3=O)c(=O)n1CC2 [Compound 55] | 262 | 0.49 |
|  |  | CONC(=O)NCCn1c(=Nc2c(C)cc(C)cc2C)cc2n(c1=O)CCc1cc(OC)c(OC)cc1-2 [Compound 8] | 377 | 0.86 |
| 8.1 | 0.05 | CCOc1cc2c(cc1OC)-c1cc(N(CCN3CC(F)C3)c3c(C)cc(C)cc3C)nc(=O)n1CC2 [Compound 74] |  |  |
| 37.3 | 0.043 | CCOc1cc2c(cc1OC)-c1cc(N(CCNC(=O)N3CCOCC3CO)c3c(C)cc(C)cc3C)nc(=O)n1CC2 (centres unmarked) [Compound 83] |  |  |
|  |  | CCOc1cc2c(cc1OC)-c1cc(=Nc3c(C)cc(C)cc3C)n(CCNC(=O)c3c(O)nnn3C)c(=O)n1CC2 [Compound 23] | 12.9 | 0.0058 |
| 5000 | 0.54 | COc1cc2c(cc1OC)-c1cc(=Nc3c(C)cc(C)cc3C)n(CCC(C)(C)O)c(=O)n1CC2 [Compound 17] |  |  |
| 414 | 0.53 | CCOc1cc2c(cc1OC)-c1cc(=Nc3c(C)cc(C)cc3C)n(CCN3CCS(=O)(=O)CC3)c(=O)n1CC2 [Compound 73] |  |  |
|  |  | COc1cc2c(cc1OC)-c1cc(=Nc3c(C)cc(C)cc3C)n(CCNC(=O)c3cccn(C4CC4)c3=O)c(=O)n1CC2 [Compound 41] | 250 | 1.14 |
|  |  | COc1cc2c(cc1OC)-c1cc(=Nc3c(C)cc(C)cc3C)n(CCN3CCn4c(nnc4C(F)(F)F)C3)c(=O)n1CC2 [Compound 34] |  | 6.4 |
|  |  | COc1cc2c(cc1OC)S(=O)(=O)CCn1c-2cc(=Nc2c(C)cc(C)cc2C)n(CCNC(N)=O)c1=O [Compound 21] | 6910 | 1000 |
|  |  | COc1cc2c(cc1OC)-c1cc(=Nc3c(C)cc(C)cc3C)n(CCNC(=O)N3Cc4cn(C5CC5)nc4C3)c(=O)n1CC2 [Compound 68] | 334 | 1.82 |
|  |  | COc1cc2c(cc1OC)-c1cc(N(c3c(C)cc(C)cc3C)C3CN(C(N)=O)C3)nc(=O)n1CC2 [Compound 32] | 238 | 0.21 |
| 8.9 | 0.027 | CCOc1cc2c(cc1OC)-c1cc(N(CCC(N)C(F)(F)F)c3c(C)cc(C)cc3C)nc(=O)n1CC2 (centres unmarked) [Compound 78] |  |  |
| 13.2 | 0.057 | CCOc1cc2c(cc1OC)-c1cc(N(CCN3CCN(C(C)=O)CC3)c3c(C)cc(C)cc3C)nc(=O)n1CC2 [Compound 71] |  |  |
|  |  | CCOc1cc2c(cc1OC)-c1cc(=Nc3c(C)cc(C)cc3C)n(CCNC(=O)c3cccn(C)c3=O)c(=O)n1CC2 [Compound 52] | 0.89 | 0.37 |
|  | 325 | COc1cc2c(cc1OC)-c1cc(N(c3c(C)cc(C)cc3C)C3CN(C(=O)c4cnc[nH]4)C3)nc(=O)n1CC2 [Compound 49] |  |  |
|  |  | CCn1cccc(C(=O)NCCn2c(=Nc3c(C)cc(C)cc3C)cc3n(c2=O)CCc2cc(OC)c(OC)cc2-3)c1=O [Compound 40] | 82.1 | 1.29 |
|  |  | CCOc1cc2c(cc1OC)-c1cc(N(c3c(C)cc(C)cc3C)C3CC(NC(=O)c4c(O)nnn4C)C3)nc(=O)n1CC2 (centres unmarked) [Compound 31] | 193 | 0.57 |
|  |  | COc1cc2c(cc1OC)-c1cc(=Nc3c(C)cc(C)cc3C)n(CCNC(=O)OCC(O)CCO)c(=O)n1CC2 (centres unmarked) [Compound 69] | 6750 | 1.91 |
|  |  | CCOc1cc2c(cc1OC)-c1cc(=Nc3c(C)cc(C)cc3C)n(CCNC(=O)c3cc[nH]c(=O)c3)c(=O)n1CC2 [Compound 30] | 26.3 | 3.23 |
| 2.6 | 0.055 | CCOc1cc2c(cc1OC)-c1cc(N(CCNC(=O)c3ccno3)c3c(C)cc(C)cc3C)nc(=O)n1CC2 [Compound 62] |  |  |

| IC50 (PDE4B1; [1]) [nM] | IC50 (PDE3A; [2]) [nM] | SMILES | IC50 (PDE4B1) [nM] | IC50 (PDE3A) [nM] |
| --- | --- | --- | --- | --- |
|  |  | CCOc1cc2c(cc1OC)-c1cc(=Nc3c(C)cc(C)cc3C)n(CCNC(=O)c3ccnn(C)c3=O)c(=O)n1CC2 [Compound 59] | 27.6 | 0.76 |
|  |  | COc1cc2c(cc1OC)-c1cc(=Nc3c(C)cc(C)cc3C)n(CCNC(=O)N3CCOCC3CO)c(=O)n1CC2 (centres unmarked) [Compound 70] | 2830 | 1.24 |
| 6730 | 24.7 | CCOc1cc2c(cc1OC)-c1cc(N(c3c(C)cc(C)cc3C)C3CN(C(=O)c4[nH]nnc4C)C3)nc(=O)n1CC2 [Compound 77] |  |  |
| 5 | 0.074 | CCOc1cc2c(cc1OC)-c1cc(N(CCN3CCS(=O)(=O)CC3)c3c(C)cc(C)cc3C)nc(=O)n1CC2 [Compound 72] |  |  |
| 10.8 | 0.036 | CCOc1cc2c(cc1OC)-c1cc(N(CCNC(=O)c3nnc(C)o3)c3c(C)cc(C)cc3C)nc(=O)n1CC2 [Compound 65] |  |  |
| 697 | 0.43 | CCOc1cc2c(cc1OC)-c1cc(=Nc3c(C)cc(C)cc3C)n(CCC(C)(C)O)c(=O)n1CC2 [Compound 54] |  |  |
| 121 | 0.026 | COc1cc2c(cc1OC)-c1cc(N(CCC(O)CO)c3c(C)cc(C)cc3C)nc(=O)n1CC2 (centres unmarked) [Compound 6] |  |  |
| 64.4 | 0.33 | CCOc1cc2c(cc1OC)-c1cc(N(CCCN)c3c(C)cc(C)cc3C)nc(=O)n1CC2 [Compound 81] |  |  |
|  |  | CCOc1cc2c(cc1OC)-c1cc(=Nc3c(C)cc(C)cc3C)n(CCCN)c(=O)n1CC2 [Compound 87] | 359 | 3.02 |
| 8880 | 0.82 | COc1cc2c(cc1OC)-c1cc(N(c3c(C)cc(C)cc3C)C3CN(C(=O)c4nnc[nH]4)C3)nc(=O)n1CC2 [Compound 56] |  |  |
|  |  | COc1cc2c(cc1OC)-c1cc(N(c3c(C)cc(C)cc3C)C3CCN(C(=O)c4c(O)nnn4C)C3)nc(=O)n1CC2 (centres unmarked) [Compound 35] | 1280 | 0.56 |
| 419 | 0.34 | COc1cc2c(cc1OCC(F)(F)F)CCn1c-2cc(=Nc2c(C)cc(C)cc2C)n(CCNC(=O)c2c(O)nnn2C)c1=O [Compound 26] |  |  |
|  |  | COc1cc2c(cc1OC)-c1cc(=Nc3c(C)cc(C)cc3F)n(CCNC(N)=O)c(=O)n1CC2 [Compound 66] | 268 | 0.64 |
|  |  | COc1cc2c(cc1OC)-c1cc(=Nc3c(C)cc(C)cc3C)n(CCNC(=O)NC3CCNCC3)c(=O)n1CC2 [Compound 67] | 3800 | 5.49 |
|  |  | COc1cc2c(cc1OC)-c1cc(N(CCNC(=O)c3cccn(C)c3=O)c3c(C)cc(C)cc3C)nc(=O)n1CC2 [Compound 46] | 17.8 | 0.082 |
|  |  | COc1cc2c(cc1OC)-c1cc(=Nc3c(C)cc(C)cc3C)n(CCNC(=O)N3CCn4c(nnc4C(F)(F)F)C3)c(=O)n1CC2 [Compound 33] | 3760 | 4.78 |
| 1.2 | 0.042 | CCOc1cc2c(cc1OC)-c1cc(N(CCNC(=O)c3ccccn3)c3c(C)cc(C)cc3C)nc(=O)n1CC2 [Compound 63] |  |  |
|  | 72.3 | COc1cc2c(cc1OC)-c1cc(N(c3c(C)cc(C)cc3C)C3CN(C(=O)c4c(O)nnn4C)C3)nc(=O)n1CC2 [Compound 47] |  |  |
|  |  | CCOc1cc2c(cc1OC)CCn1c-2cc(=Nc2c(C)cc(C)cc2C)n(CCNC(N)=O)c1=O [Compound 12] | 337 | 7.45 |
|  |  | COCCOc1cc2c(cc1OC)-c1cc(=Nc3c(C)cc(C)cc3C)n(CCNC(=O)c3c(O)nnn3C)c(=O)n1CC2 [Compound 28] | 478 | 0.46 |
|  |  | Cc1cc(C)c(N=c2cc3n(c(=O)n2CCNC(N)=O)CCc2cc4c(cc2-3)OCO4)c(C)c1 [Compound 11] |  | 117 |
|  |  | COc1cc2c(cc1OC1CCN(C)C1)CCn1c-2cc(=Nc2c(C)cc(C)cc2C)n(CCNC(N)=O)c1=O (centres unmarked) [Compound 37] |  | 60.1 |
|  | 1010 | COc1cc2c(cc1OCc1ccccc1)CCn1c-2cc(=Nc2c(C)cc(C)cc2C)n(CCNC(N)=O)c1=O [Compound 24] |  |  |
|  | 6.63 | CNCCn1c(=Nc2c(C)cc(C)cc2C)cc2n(c1=O)CCc1cc(OC)c(OC)cc1-2 [Compound 16] |  |  |
|  |  | Cc1cc(C)c(N=c2cc3n(c(=O)n2CCNC(N)=O)CCc2cc4c(cc2-3)OCCO4)c(C)c1 [Compound 13] |  | 44.6 |

| SMILES | IC50 (PDE4B1; [1]) [nM] | IC50 (PDE3A; [2]) [nM] | IC50 (PDE4B1) [nM] | IC50 (PDE3A) [nM] |
| --- | --- | --- | --- | --- |
| COc1cc2c(cc1OC)-c1c/c(=N\c3c(C)cc(C)cc3C)n(C)c(=O)n1CC2 [Trequinsin Hydrochlorid, Trequinsin hydrochloride, reference compound] |  | 0.227 |  |  |
